Measured values taken from patent US7445897B2, “Sequence variants of multi-drug resistance genes, MDR1 and MRP1, and methods for assessment of drug penetration and disposition” (University of Washington, priority 2004, dated 2008).
Like-named read-outs stand apart in the source and are kept apart here.

How the values were obtained:
[1] = tested on: Pgp (MDR1 and 1199 variants) in recombinant HEK cells; test: Doxorubicin intracellular accumulation in recombinant HEK cells; format: cell-based, human; conditions: recombinant HEK cells expressing MDR1, any variant
Method: Cells were washed with ice-cold PBS, trypsinized, and lysed in 0.5% deoxycholic acid. To precipitate the proteins tricholoracetic acid was added to 5% and the cell lysates were incubated for 30 min at 4° C. and centrifuged at 20,000 g.

[2] = target: P-gp (MDR11199, G1199A) in recombinant LLC-PK1 cells (Homo sapiens, UniProt P08183, S400N)
[3] = tested on: LLC-PK1 control cells; test: Intracellular uptake of HIV protease inhibitors; format: in vitro ADME, porcine
[4] = tested on: LLC-PK1 control cells
[5] = van Heeswijk et al. 2001; cited from earlier work
[6] = target: MDR1 (wild type) (Homo sapiens, UniProt P08183, G185V/S893A); test: in vitro
[7] = target: MDR1 (1199A variant) (Homo sapiens, UniProt P08183, G185V/S400N/S893A); test: Intracellular uptake of HIV protease inhibitors; conditions: recombinant LLC-PK1 cells expressing MDR1-1199A
[8] = healthy human subjects; Greiner et al. 1999; cited from earlier work
[9] = tested on: LLC-PK1 control cells; test: Cytotoxic drug sensitivity assay (3H-thymidine); format: cell-based, porcine; conditions: Sus scrofa, 72 h, 3 days with drug
Method: (§1) On the second day of the incubation, 1 μCi of ^3H-thymidine (specific activity: 81.1 Ci/mmole) was added to each well and incubated overnight. Cells were harvested on day 3 with a cell harvester.
(§2) Dose response analysis was performed for doxorubicin, vincristine and vinblastine. […] TRANSEPITHELIAL TRANSPORT

[10] = tested on: recombinant MDR11199 LLC-PK1 cells; test: Cytotoxic drug sensitivity assay (3H-thymidine); format: cell-based, porcine
Method: as §1, §2

[11] = tested on: recombinant MDR1wt LLC-PK1 cells; test: Cytotoxic drug sensitivity assay (3H-thymidine); format: cell-based, porcine
Method: as §1, §2

[12] = tested on: HEK negative control cells; test: Cytotoxic drug sensitivity assay (MTS); format: cell-based, human; conditions: Homo sapiens, 72 h, HEK Control; 72hours, MTS; read-out: EC50 (Mean ± S.D.)
[13] = tested on: MDR1 (wild type); test: Cytotoxic drug sensitivity assay (MTS); format: cell-based, human; conditions: human, HEK293 cells recombinantly expressing MDR1 wild type, HEK MDR1 WT; 72hours, MTS; read-out: EC50 (Mean ± S.D.)
[14] = tested on: MDR1 (G1199T variant); test: Cytotoxic drug sensitivity assay (MTS); format: cell-based, human; conditions: human, HEK293 cells recombinantly expressing MDR1 G1199T; HEK MDR1 G1199T; 72hours, MTS; read-out: EC50 (Mean ± S.D.)
[15] = tested on: MDR1 (G1199A variant); test: in vitro; conditions: human
[16] = tested on: P-gp (MDR11199, G1199A) in recombinant LLC-PK1 cells; conditions: human, LLC-PK1
[17] = target: T1, rMRP1 (Rattus norvegicus, UniProt Q8CG09); test: Calcein efflux in rMRP1-expressing MDCK-II cells; format: cell-based; conditions: indomethacin 100 μM, MK571 10 μM
T1 construct: expressed in transfected cells
Description: These recombinant cells were derived from MDCK-II epithelial cells that form tight junctions, suitable for transepithelial transport assessment. Several stable clones of epithelial cells that consistently express rMRP1 were constructed, which could be differentiated to form a polarized monolayer for transepithelial flux studies. […] The cells that consistently over-expressed rMRP1 were expanded from a single cell clone and analyzed for MRP1 function.

[18] = protease inhibitor + GF120918 (1 μM)

Chain of P-gp (MDR11199, G1199A) in recombinant LLC-PK1 cells (Homo sapiens, UniProt P08183, S400N) (P08183 whole entry S400N): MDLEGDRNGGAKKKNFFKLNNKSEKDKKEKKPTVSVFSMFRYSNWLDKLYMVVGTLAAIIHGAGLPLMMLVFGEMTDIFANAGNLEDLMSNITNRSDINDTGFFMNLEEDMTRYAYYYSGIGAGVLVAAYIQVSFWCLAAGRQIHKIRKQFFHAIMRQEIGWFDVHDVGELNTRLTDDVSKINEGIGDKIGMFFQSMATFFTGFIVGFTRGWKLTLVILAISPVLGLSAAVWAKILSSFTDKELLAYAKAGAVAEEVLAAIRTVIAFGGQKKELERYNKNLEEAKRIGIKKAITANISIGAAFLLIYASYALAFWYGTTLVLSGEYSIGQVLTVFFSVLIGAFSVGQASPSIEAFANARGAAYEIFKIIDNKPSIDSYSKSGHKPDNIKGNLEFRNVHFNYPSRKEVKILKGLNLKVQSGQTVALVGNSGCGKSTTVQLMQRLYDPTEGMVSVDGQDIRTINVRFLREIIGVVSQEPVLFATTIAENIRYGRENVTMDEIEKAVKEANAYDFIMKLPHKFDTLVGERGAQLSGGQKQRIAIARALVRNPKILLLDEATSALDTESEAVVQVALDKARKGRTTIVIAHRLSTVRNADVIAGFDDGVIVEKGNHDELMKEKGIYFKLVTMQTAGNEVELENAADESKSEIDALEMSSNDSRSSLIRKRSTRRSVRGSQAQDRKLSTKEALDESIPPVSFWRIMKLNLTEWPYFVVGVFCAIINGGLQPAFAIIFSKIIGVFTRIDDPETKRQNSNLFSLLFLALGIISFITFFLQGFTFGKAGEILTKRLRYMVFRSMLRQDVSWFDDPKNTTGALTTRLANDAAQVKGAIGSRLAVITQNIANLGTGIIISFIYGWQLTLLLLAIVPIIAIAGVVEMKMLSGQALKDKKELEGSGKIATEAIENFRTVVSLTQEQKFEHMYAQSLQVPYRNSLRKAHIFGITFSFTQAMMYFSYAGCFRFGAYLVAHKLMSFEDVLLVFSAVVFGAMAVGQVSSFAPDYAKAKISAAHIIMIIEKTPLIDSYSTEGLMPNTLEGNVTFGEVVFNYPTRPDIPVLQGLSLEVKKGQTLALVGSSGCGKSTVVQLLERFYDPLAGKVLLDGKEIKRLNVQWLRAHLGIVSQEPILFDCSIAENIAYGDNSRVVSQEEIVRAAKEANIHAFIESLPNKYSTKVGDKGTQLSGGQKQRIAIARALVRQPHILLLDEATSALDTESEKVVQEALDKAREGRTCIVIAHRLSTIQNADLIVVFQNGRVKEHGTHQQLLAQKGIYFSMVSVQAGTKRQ
Chain of MDR1 (wild type) (Homo sapiens, UniProt P08183, G185V/S893A) (P08183 whole entry G185V/S893A): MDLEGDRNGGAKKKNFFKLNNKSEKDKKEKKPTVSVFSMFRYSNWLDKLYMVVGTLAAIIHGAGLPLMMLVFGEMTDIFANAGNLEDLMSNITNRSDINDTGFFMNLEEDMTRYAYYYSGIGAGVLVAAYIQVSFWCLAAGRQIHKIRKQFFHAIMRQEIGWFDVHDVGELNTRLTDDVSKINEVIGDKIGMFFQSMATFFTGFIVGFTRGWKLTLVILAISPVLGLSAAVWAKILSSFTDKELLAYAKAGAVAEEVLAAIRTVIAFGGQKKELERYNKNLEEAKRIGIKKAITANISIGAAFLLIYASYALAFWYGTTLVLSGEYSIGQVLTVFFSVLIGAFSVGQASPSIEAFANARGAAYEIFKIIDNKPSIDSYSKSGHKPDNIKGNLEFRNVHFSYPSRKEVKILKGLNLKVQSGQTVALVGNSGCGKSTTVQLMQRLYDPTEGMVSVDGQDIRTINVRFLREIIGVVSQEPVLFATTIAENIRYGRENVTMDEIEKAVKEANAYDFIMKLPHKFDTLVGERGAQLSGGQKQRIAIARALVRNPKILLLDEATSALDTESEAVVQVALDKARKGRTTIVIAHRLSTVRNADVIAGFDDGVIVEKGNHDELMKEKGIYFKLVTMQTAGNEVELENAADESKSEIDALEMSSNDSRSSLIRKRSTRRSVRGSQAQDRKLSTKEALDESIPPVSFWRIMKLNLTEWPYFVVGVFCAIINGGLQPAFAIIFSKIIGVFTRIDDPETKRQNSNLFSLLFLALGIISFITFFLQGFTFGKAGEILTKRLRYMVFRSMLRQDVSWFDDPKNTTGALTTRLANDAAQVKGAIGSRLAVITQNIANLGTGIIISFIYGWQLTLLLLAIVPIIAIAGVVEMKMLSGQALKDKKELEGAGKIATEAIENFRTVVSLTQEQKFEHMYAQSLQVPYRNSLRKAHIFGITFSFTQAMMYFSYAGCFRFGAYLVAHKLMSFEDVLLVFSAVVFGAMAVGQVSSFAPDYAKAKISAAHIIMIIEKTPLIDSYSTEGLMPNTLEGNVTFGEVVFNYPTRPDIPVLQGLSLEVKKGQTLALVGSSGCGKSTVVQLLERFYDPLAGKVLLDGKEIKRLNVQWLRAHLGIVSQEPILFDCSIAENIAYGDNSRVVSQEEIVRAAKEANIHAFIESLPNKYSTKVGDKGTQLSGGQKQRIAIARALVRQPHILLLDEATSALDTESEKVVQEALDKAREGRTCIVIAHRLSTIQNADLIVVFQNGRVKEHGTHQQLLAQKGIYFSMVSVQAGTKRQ
Chain of MDR1 (1199A variant) (P08183 whole entry G185V/S400N/S893A): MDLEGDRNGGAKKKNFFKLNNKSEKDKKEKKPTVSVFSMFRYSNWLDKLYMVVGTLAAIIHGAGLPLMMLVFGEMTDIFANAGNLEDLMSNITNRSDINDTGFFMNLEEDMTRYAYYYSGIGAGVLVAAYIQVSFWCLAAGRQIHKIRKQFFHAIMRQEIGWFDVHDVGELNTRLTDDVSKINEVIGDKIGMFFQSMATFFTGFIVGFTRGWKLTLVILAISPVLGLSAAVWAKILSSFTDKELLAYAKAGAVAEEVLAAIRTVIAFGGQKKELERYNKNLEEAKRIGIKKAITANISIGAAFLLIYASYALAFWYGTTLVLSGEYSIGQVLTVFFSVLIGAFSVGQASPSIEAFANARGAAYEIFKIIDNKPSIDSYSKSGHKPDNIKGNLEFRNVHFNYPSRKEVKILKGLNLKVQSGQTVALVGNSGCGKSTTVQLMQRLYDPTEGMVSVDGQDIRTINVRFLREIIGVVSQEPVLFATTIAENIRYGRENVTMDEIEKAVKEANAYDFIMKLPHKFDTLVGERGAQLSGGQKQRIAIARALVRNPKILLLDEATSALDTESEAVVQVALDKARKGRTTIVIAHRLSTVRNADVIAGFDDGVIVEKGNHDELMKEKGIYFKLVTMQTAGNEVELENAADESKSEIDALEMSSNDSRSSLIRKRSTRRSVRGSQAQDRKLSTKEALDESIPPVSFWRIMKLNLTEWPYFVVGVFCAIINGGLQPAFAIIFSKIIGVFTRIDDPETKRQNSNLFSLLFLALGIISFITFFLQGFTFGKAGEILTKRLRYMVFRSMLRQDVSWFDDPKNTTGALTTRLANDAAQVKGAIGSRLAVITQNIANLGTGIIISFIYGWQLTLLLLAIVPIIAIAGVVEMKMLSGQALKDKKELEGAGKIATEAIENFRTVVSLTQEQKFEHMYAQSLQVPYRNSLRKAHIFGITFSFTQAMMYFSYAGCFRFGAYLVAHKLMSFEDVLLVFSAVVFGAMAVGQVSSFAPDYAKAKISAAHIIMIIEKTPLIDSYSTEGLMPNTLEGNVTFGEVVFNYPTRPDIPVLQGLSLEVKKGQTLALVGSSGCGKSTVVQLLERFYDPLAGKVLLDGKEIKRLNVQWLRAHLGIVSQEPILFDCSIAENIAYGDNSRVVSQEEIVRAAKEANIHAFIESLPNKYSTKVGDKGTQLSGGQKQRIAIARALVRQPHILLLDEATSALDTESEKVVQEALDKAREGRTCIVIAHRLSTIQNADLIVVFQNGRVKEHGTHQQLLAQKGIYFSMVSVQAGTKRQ

**Q.** Which “effect of inhibitor on reduction in intracellular doxorubicin concentration” value [1] does the source give for COc1cc2c(cc1OC)CN(CCc1ccc(NC(=O)c3cccc4c(=O)c5cccc(OC)c5[nH]c34)cc1)CC2 [GF120918, N-(4-[2-(1,2,3,4-tetrahydro-6,7-dimethoxy-2-isoquinolinyl)ethyl]-phenyl)-9,10-dihydro-5-methoxy-9-oxo-4-acridine carboxamide] here?
**A.** can be reversed

**Q.** And the “effect of inhibitor on P-gp efflux of protease inhibitors” value [2]?
**A.** effectively blocked P-gp activity

**Q.** For CC(C)CN(C[C@@H](O)[C@H](Cc1ccccc1)NC(=O)O[C@H]1CCOC1)S(=O)(=O)c1ccc(N)cc1 [amprenavir], which Km [3] is on record?
**A.** 250 nM

**Q.** And the Vmax [3]?
**A.** 0.048 pmole/min*10^6 cells

**Q.** What about the “Rate of transfer dQ/dt ± s.d., A → B” value [4, 18] of the same molecule?
**A.** 10.8 ± 0.9

**Q.** What about the “Rate of transfer dQ/dt ± s.d., B → A” value [4, 18] of the same molecule?
**A.** 10.2 ± 0.4

**Q.** What about the “Rate of transfer dQ/dt ± s.d., A → B” value ([4]; protease inhibitor alone, 5 μM) of the same molecule?
**A.** 9.33 ± 0.46

**Q.** And the “Rate of transfer dQ/dt ± s.d., B → A” value ([4]; protease inhibitor alone, 5 μM)?
**A.** 11.6 ± 0.8

**Q.** And the “oral bioavailability in systemic circulation” value [5]?
**A.** 35-90%

**Q.** What about the Km [6] of the same molecule?
**A.** 10.2 µM

**Q.** What about the Km [7] of the same molecule?
**A.** 1000 nM

**Q.** For C[C@H]1O[C@@H](O[C@H]2[C@@H](O)C[C@H](O[C@H]3[C@@H](O)C[C@H](O[C@H]4CC[C@@]5(C)[C@H](CC[C@@H]6[C@@H]5C[C@@H](O)[C@]5(C)[C@@H](C7=CC(=O)OC7)CC[C@]65O)C4)O[C@@H]3C)O[C@@H]2C)C[C@H](O)[C@@H]1O [digoxin], which “range in the oral bioavailability from inter-individual variation in intestinal MDR1 expression” value [8] is on record?
**A.** 7 fold

**Q.** Which EC50 [9] does the source give for COc1cccc2c1C(=O)c1c(O)c3c(c(O)c1C2=O)C[C@@](O)(C(=O)CO)C[C@@H]3O[C@H]1C[C@H](N)[C@H](O)[C@H](C)O1 [doxorubicin] here?
**A.** 34.2 ± 3.1 nM

**Q.** And the “EC50 fold-change from control” value ([10]; MDR11199 vs LLC-PK1 control)?
**A.** 3.51 fold

**Q.** And the EC50 ([10]; Sus scrofa, 72 h, MDR11199 LLC-PK1 cells, 3 days with drug)?
**A.** 120 ± 32 nM

**Q.** What about the “EC50 fold-change from control” value ([11]; MDR1wt vs LLC-PK1 control) of the same molecule?
**A.** 4.53 fold

**Q.** What about the EC50 ([11]; Sus scrofa, 72 h, MDR1wt LLC-PK1 cells, 3 days with drug) of the same molecule?
**A.** 155 ± 68 nM

**Q.** And the EC50 [12]?
**A.** 45.5 ± 25.1 nM

**Q.** What about the EC50 at 72 h [13] of the same molecule?
**A.** 1110 ± 112 nM

**Q.** And the EC50 at 72 h [14]?
**A.** 383 ± 39 nM

**Q.** And the EC50 [15]?
**A.** 2180 ± 361 nM

**Q.** Which results are given for CC(C)(C)NC(=O)[C@@H]1CN(Cc2cccnc2)CCN1C[C@@H](O)C[C@@H](Cc1ccccc1)C(=O)N[C@H]1c2ccccc2C[C@H]1O [indinavir]?
**A.** Rate of transfer dQ/dt ± s.d., A → B [4, 18]: 4.26 ± 0.25; Rate of transfer dQ/dt ± s.d., B → A [4, 18]: 5.99 ± 0.11; Rate of transfer dQ/dt ± s.d., A → B ([4]; protease inhibitor alone, 5 μM): 7.17 ± 0.03; Rate of transfer dQ/dt ± s.d., B → A ([4]; protease inhibitor alone, 5 μM): 6.69 ± 0.21; decrease in apical-to-basolateral flux in MDR11199 cells compared to MDR1wt cells [16]: 1.9 fold; oral bioavailability in systemic circulation [5]: 70%

**Q.** With COc1ccc2c(c1)c(CC(=O)O)c(C)n2C(=O)c1ccc(Cl)cc1 [indomethacin] as the molecule, how does the “effect of MRP1 inhibitor on calcein efflux” value [17] read?
**A.** suppressed efflux transport of calcein back to the control level
